Measured values reported in ChEMBL document CHEMBL3400046, “Discovery and evaluation of a novel monocyclic series of CXCR2 antagonists” (Bioorg Med Chem Lett, 2015).

What was measured:
in vitro [1] = conditions: human, Caco-2
in vitro [2] = conditions: human, hepatocytes
physchem = conditions: octanol/water
[3] = Dissociation constant, pKa of the compound; assay type: physicochemical
[4] = Half life in iv dosed rat; assay type: ADME, organism-based; conditions: in vivo
[5] = Fraction of the dose absorbed in iv dosed rat; assay type: ADME, organism-based; conditions: in vivo, read-out: Fabs
[6] = Volume of distribution at steady state in iv dosed rat; assay type: ADME, organism-based; conditions: in vivo, read-out: Vdss
in vivo = conditions: rat, iv
Rattus norvegicus = test: Dose normalized AUC in po dosed rat; assay type: ADME, organism-based; conditions: in vivo
[7] = Bioavailability in iv dosed rat; assay type: ADME, organism-based; conditions: in vivo
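Throughout, for logD: distribution coefficient determined with the shake-flask method.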

Compound | hepatocyte CLint (in vitro [2]) [µL/min/1e6 cells] | logD (physchem) | pKa [3] | further results
C[C@H](CO)Nc1cc(NS(=O)(=O)N2CCCC2)nc(SCc2cccc(F)c2F)n1 | 12 | 3.4 | – | Papp A→B (in vitro [1]): 7.5 ×10⁻⁶ cm/s
C[C@H](CO)Nc1cc(NS(=O)(=O)c2ccccc2)nc(SCc2ccccc2)n1 | – | 2.5 | 6.6 | –
C[C@H](CO)Nc1cc(NS(C)(=O)=O)nc(SCc2ccccc2)n1 | – | 1.9 | 6.9 | –
C[C@H](CO)Nc1cc(NS(=O)(=O)N2CCC2)nc(SCc2cccc(F)c2F)n1 | 3.1 | 2.6 | – | Papp A→B (in vitro [1]): 10.1 ×10⁻⁶ cm/s; half-life [4]: 3.2 h; Fa [5]: 50%; Vd [6]: 1.4 L/kg; clearance (in vivo): 8 mL/min/kg; AUC/dose (Rattus norvegicus): 5.9 µM·h; bioavailability [7]: 44%
C[C@H](CO)Nc1cc(C(=O)O)nc(SCc2ccccc2)n1 | – | -0.7 | 5.5 | –
C[C@H](CO)Nc1cc(NS(=O)(=O)N(C)C)nc(SCc2cccc(Cl)c2F)n1 | – | 3.4 | – | Papp A→B (in vitro [1]): 6.4 ×10⁻⁶ cm/s
C[C@H](CO)Nc1cc(NS(=O)(=O)c2cn(C)cn2)nc(SCc2cccc(F)c2F)n1 | – | 1.6 | – | –
C[C@H](CO)Nc1cc(NS(=O)(=O)C(F)(F)F)nc(SCc2ccccc2)n1 | – | 2.2 | 5.8 | –
C[C@H](CO)Nc1cc(NS(=O)(=O)N2CCC2)nc(SCc2cccc(Cl)c2F)n1 | 2.4 | 3.2 | – | –
C[C@H](CO)Nc1cc(NS(=O)(=O)N(C)C)nc(SCc2ccccc2)n1 | – | 2.6 | 7.3 | –
C[C@H](CO)Nc1cc(NS(=O)(=O)c2ccc(C#N)cc2)nc(SCc2ccccc2)n1 | – | 2.6 | 6.1 | –
C[C@H](CO)Nc1cc(NS(=O)(=O)Cc2ccccc2)nc(SCc2ccccc2)n1 | – | 2.7 | – | –
C[C@H](CO)Nc1cc(NS(=O)(=O)N2CCOCC2)nc(SCc2cccc(Cl)c2F)n1 | 8 | 3.1 | – | Papp A→B (in vitro [1]): 5.4 ×10⁻⁶ cm/s
C[C@H](CO)Nc1cc(NS(=O)(=O)N2CCNCC2)nc(SCc2cccc(Cl)c2F)n1 | – | 1.5 | – | Papp A→B (in vitro [1]): 0.1 ×10⁻⁶ cm/s
C[C@H](CO)Nc1cc(NS(=O)(=O)c2ccc(Cl)cc2)nc(SCc2ccccc2)n1 | – | 3.5 | 6.5 | –
C[C@H](CO)Nc1nc(SCc2cccc(F)c2F)nc2nc(N)sc12 | – | – | – | Fa [5]: 12%; AUC/dose (Rattus norvegicus): 0.7 µM·h; bioavailability [7]: 9%
C[C@H](CO)Nc1cc(NS(=O)(=O)N2CCCCC2)nc(SCc2cccc(F)c2F)n1 | 30 | 3.9 | – | –
C[C@H](CO)Nc1cc(C(=O)NS(C)(=O)=O)nc(SCc2ccccc2)n1 | – | -0.7 | 4.9 | –
C[C@H](CO)Nc1cc(NS(=O)(=O)N2CCOCC2)nc(SCc2cccc(F)c2F)n1 | 4.6 | – | – | half-life [4]: 1 h; Fa [5]: 48%; Vd [6]: 1.1 L/kg; clearance (in vivo): 25 mL/min/kg; AUC/dose (Rattus norvegicus): 1.6 µM·h; bioavailability [7]: 31%
C[C@H](CO)Nc1nc(SCc2cccc(F)c2F)nc2[nH]c(=O)sc12 | 15 | – | – | half-life [4]: 1.1 h; Fa [5]: 24%; Vd [6]: 0.3 L/kg; clearance (in vivo): 6 mL/min/kg; AUC (Rattus norvegicus): 2.1 µM·h; bioavailability [7]: 22%
C[C@H](CO)Nc1cc(NS(=O)(=O)c2cn(C)cn2)nc(SCc2cccc(Cl)c2F)n1 | – | 2 | – | Papp A→B (in vitro [1]): 1.4 ×10⁻⁶ cm/s
